Test system: H34 cells
Test: Antibody production by ELISA from H34 hybridoma cells incubated with protease inhibitor
Format: cell-based, mouse
Details: H34 cells incubated 1-3 days with 4 mM AEBSF in 96 well plates, supernatant ELISA; untreated H34 4.3 ug/ml

Structure (SMILES): NCCc1ccc(S(=O)(=O)F)cc1 [AEBSF, 4-(2-aminoethyl)-benzenesulfonyl floride]
- ANTIBODY PRODUCTION TREATED: 0.031 µg/mL

Reference: patent publication US20090155797A1, “Methods For Generating Enhanced Antibody-Producing Cell Lines With Improved Growth Characteristics” (priority 2002, published 2009)
